Laboratory results reported in patent US11690822B2, “Method for treating non-compaction cardiomyopathy” (EXCELSIOR PHARMATECH LABS, priority 2018, dated 2023).

Assays:
LVNC cardiomyocytes [1] = assay: Seahorse assay of mitochondrial function (OCR, ECAR) in LVNC-hiPSC-derived cardiomyocytes; type: cell-based, human; details: 5 μM, iH LVNC cardiomyocytes, FIG. 2C
Description: Human induced pluripotent stem cell (hiPSC) lines respectively derived from patients with left ventricular non-compaction cardiomyopathy (LVNC) and a normal healthy […] were reprogrammed through two approaches; one line of each patient was reprogrammed from skin cells by lentivirus carrying four Yamanaka factors (Klf4, Myc, Sox2, Oct4; conducted by Dr. Hong-Nerng Ho at NTU) and the other line was reprogrammed from peripheral blood monocytes (PBMC) by Sendai virus carrying the four Yamanaka factors (conducted by Dr. Joseph C. Wu at Stanford University). Patients consented to collect patients' tissues/blood cells for genetic examination, reprogramming to hiPSC, and pharmacological studies. […] Cell shortening was measured by the Ionoptix system (Westwood, Mass., USA), and mitochondrial function was assessed by an Agilent seahorse analyzer (Seahorse Bioscience, MA, USA).
Seahorse assay was performed on day 70 to measure mitochondrial OCR (Oxygen Consumption Rate) and ECAR (Extracellular Acidification Rate) under the conditions in the sequential adding of the XF mito stress test kit with the indicated reagents by the arrows. […] The relationship of OCR vs. ECAR was measured under the conditions of basal (before oligomycin) and maximum respiratory capacity (after FCCP).

LVNC cardiomyocytes [2] = assay: Cell shortening (Ionoptix) and inotropic response to isoprenaline in LVNC-hiPSC-CMs; type: cell-based, human; details: 5 μM; isoprenaline 0.03, 0.1, 1 μM; treatment day 30 through day 70; FIG. 3B
Description: Human induced pluripotent stem cell (hiPSC) lines respectively derived from patients with left ventricular non-compaction cardiomyopathy (LVNC) and a normal healthy […] were reprogrammed through two approaches; one line of each patient was reprogrammed from skin cells by lentivirus carrying four Yamanaka factors (Klf4, Myc, Sox2, Oct4; conducted by Dr. Hong-Nerng Ho at NTU) and the other line was reprogrammed from peripheral blood monocytes (PBMC) by Sendai virus carrying the four Yamanaka factors (conducted by Dr. Joseph C. Wu at Stanford University). Patients consented to collect patients' tissues/blood cells for genetic examination, reprogramming to hiPSC, and pharmacological studies. Drug effect was validated via testing the same drug at the same dose in human cardiomyocytes derived from the two lines of the same patient with at least three independent repeats in each line. Cell shortening was measured by the Ionoptix system (Westwood, Mass., USA), and mitochondrial function was assessed by an Agilent seahorse analyzer (Seahorse Bioscience, MA, USA).

LVNC cardiomyocytes [3] = assay: Proteomic analysis (LC-MS/MS) of LVNC cardiomyocytes treated with or without simvastatin; type: cell-based, human
Procedure: The samples were further digested by trypsin. After being desalted and dried, LC-MS/MS analysis was performed by the LTQ-Orbitrap Velos mass spectrometer system. The peptide and protein group IDs were obtained by MASCOT database searching with precursor mass accuracy of 7 ppm and MS/MS accuracy of 0.5 Da. The large mass-spectrometric raw data were further analyzed by the MaxQuant software based on the Uniprot human database with a label-free quantification method and followed by the statistical analysis using the Perseus software.

[4] = tested on: Tnnt2^R154W/+::Mypn^S1291T/+ LVNC mice; assay: Echocardiography of cardiac function (LVEF) in LVNC mice; type: in vivo, mouse
Procedure: Tnnt2(R154W)- and Mypn(S1291T)-knockin mice on C57BL/6j background were generated by Gene Knockout Mouse Core Laboratory of National Taiwan University Center of Genomic Medicine. Genetically heterozygous LVNC mice (Tnnt2(R154W)^+/−:: Mypn(S1291T)^+/−) were obtained from crossing Tnnt2(R154W)^+/− and Mypn(S1291T)^+/− mice. PCR and DNA sequencing were performed to confirm the genotype. All animal procedures and protocols were approved by AAALAC-accredited facility.
The cardiac motion function of LVNC mice was measured through echocardiography in M-mode by the VisualSonic vevo 2100 imaging system (VisualSonic Inc., Toronto, Canada). Cardiac glucose metabolic rate of LVNC mice was measured by dynamic small animal positron emission tomography (PET) observation under anesthetization by 2% isoflurane inhalation. ^18F-FDG (fluorodeoxyglucose 18F) uptake in LVNC mouse heart was measured for the analysis of cardiac glucose metabolic rate (MRGlu) by dynamic small animal positron emission tomography (PET) to examine the changes in cardiometabolism.
Repeated measures two-way ANOVA with multiple comparisons by the Tukey test was used to distinguish the difference in cell shortening velocity between DMSO- and simvastatin-groups on day 50 and day 70 in LVNC-hiPSC-CMs of iFa and iH. […]

With Cc1cc(C)c(CNC(=O)c2cc(-c3ccc(N4CCN(C)CC4)nc3)cc3c2c(C)cn3C(C)C)c(=O)[nH]1 [GSK503] the “OCR and ECAR of LVNC cardiomyocytes (mitochondrial function)” value (LVNC cardiomyocytes [1]) was “does not significantly improve OCR or ECAR” and the “OCR and ECAR of LVNC cardiomyocytes (mitochondrial function)” value (LVNC cardiomyocytes [1]; listed as gsk) was “did not change cardiac mitochondrial dysfunction”.

In the case of O=C(CCCCCCC(=O)Nc1ccccc1)NO [SAHA], the “cardiac contraction and positive inotropic response to isoprenaline-induced β-stimulation” value (LVNC cardiomyocytes [2]) is reported as “unable to improve LVNC cardiac functions”.

In the case of CC(C)c1c(C(=O)Nc2ccccc2)c(-c2ccccc2)c(-c2ccc(F)cc2)n1CC[C@@H](O)C[C@@H](O)CC(=O)O [atorvastatin], the “cardiac contraction and positive inotropic response to isoprenaline-induced β-stimulation” value (LVNC cardiomyocytes [2]) is reported as “the efficacy of simvastatin is better than those of the other statins”.

In the case of CC[C@H](C)C(=O)O[C@H]1C[C@@H](C)C=C2C=C[C@H](C)[C@H](CC[C@@H]3C[C@@H](O)CC(=O)O3)[C@H]21 [lovastatin], the “cardiac contraction and positive inotropic response to isoprenaline-induced β-stimulation” value (LVNC cardiomyocytes [2]) is reported as “the efficacy of simvastatin is better than those of the other statins”.

For CCC(C)(C)C(=O)O[C@H]1C[C@@H](C)C=C2C=C[C@H](C)[C@H](CC[C@@H]3C[C@@H](O)CC(=O)O3)[C@H]21 [simvastatin], the “number of proteins highly expressed in both healthy/iH,ctrl and iH,s/iH,ctrl” value (LVNC cardiomyocytes [3]; iH LVNC cardiomyocytes, FIG. 4C) was 69 proteins, the “number of proteins significantly upregulated in both iF,s/iF,ctrl and iH,s/iH,ctrl” value (LVNC cardiomyocytes [3]; two LVNC patients (iFa & iH), FIG. 4D) was 27 proteins and the “slope of linear regression of LVEF % vs. day” value ([4]; S(d1-84): treated initial 84 days, then 42 days drug holiday, P=0.1326, R square=0.3352, not significantly deviated from zero) was 0.05031. For the same molecule, the “slope of linear regression of LVEF % vs. day” value ([4]; S(d1-126): continuous treatment 126 days, 3.5 mg/kg/day osmotic pump, P=0.0297, R square=0.6445, significantly deviated from zero) was 0.1098.
